Ends that are not written are not given here.
Tested on: IL8 release, epithelial cells from human gingival mucosa
Assay: IL8 release in human ex vivo gingival mucosa model stimulated by substance P
Type: cell-based
Conditions: gingival mucosa stimulated by substance P 10 microM alone; measured at 24 hours; versus 29.6 ng/ml in control group (p=0.04)
Description: Tritoqualin effect on IL8 release on a human ex vivo model (epithelial Cells from Human gingival extraction maintained in survival) after stimulation of IL8 release
13 fragments of gingival mucous from different human donors (removal of wisdom teeth of healthy volunteers) were maintained in survival ex vivo. To this end, fragments were placed in inserts themselves willing suspended above the culture wells. The nutrient medium (antibiotics, FCS—Fetal Calf Serum) was added to the bottom of the wells, passage is carried out by slow diffusion of the two compartments by means of a porous membrane ([…]). The whole was maintained in organ culture for 24 hours in an oven to a humid atmosphere at 37° C. in the presence of 5% CO2.
Gingival inflammation was achieved by stimulation of the mucosa with a neurotransmitter, substance P (10 microM) deposited in the culture medium. Tritoqualine was added to the culture medium (systemic effect) at a concentration of 20 microM, 10 minutes after application of substance P. […]
The inflammatory cytokine, IL8, a potent chemo attractant of neutrophils, was measured in culture supernatants, 24 hours after deposition of substance P.
IL8 was measured in ng/ml by immunoassays (kits Gen Probe, France) with a spectrophotometer at 450 nm.

Substance P: neurotransmitter, an established pro-inflammatory compound used to stimulate IL8 release (RPKPQQFFGLM-NH2; ends and bridges not checked; UniProt P20366 58-68, looked up)
IL8 release in culture supernatant: 31.7 ng/mL

Reference: US9301955B2, “Tritoqualine for use in the treatment of cystic fibrosis” (ORPHAN SYNERGY EUROPE-PHARMA, priority 2012, dated 2016)
